Data from US9534221B2, “Targeting the steroidogenic pathway for treating and/or preventing allergic diseases” (National Jewish Health, priority 2013, dated 2017).

Key:
Balb/c mice = experiment: Peanut-induced intestinal allergy model (PE sensitized and challenged mice); format: in vivo, mouse
Protocol: The experimental protocol for sensitization and challenge to peanut was previously described (Wang, M., et al. J. Allergy Clin. Immunol. 126, 306-316 (2010).
AMG was dissolved in 1 M hydrogen chloride and diluted with saline for in vivo studies or diluted with RPMI medium for in vitro study. The final concentration of 1 M hydrogen chloride was less than 1% and 0.05% for in vivo and in vitro, respectively. PE sensitized and challenged mice received different doses (5, 10, 20 mg/kg) of the Cyp11a1 enzyme inhibitor (PE/PE/AMG) by means of gavage using a 22-gauge feeding needle (Fisher Scientific) twice a day during the peanut challenge phase. Controls included PE sensitized and challenged but vehicle (saline) treated (PE/PE/vehicle), or sham sensitized but PE challenged and vehicle-treated (PBS/PE/vehicle) mice.
Anaphylactic symptoms were evaluated 30 minutes after the oral challenge, as previously reported (Li, X. M., et al. J. Allergy Clin. Immunol. 106:150-158 (2000)). Briefly, 0: no symptoms; 1: scratching and rubbing around the nose and head; 2: puffiness around the eyes and mouth, diarrhea, pilar erecti, reduced activity, and/or decreased activity with increased respiratory rate; 3: wheezing, labored respiration, and cyanosis around the mouth and the tail; 4: no activity after prodding or tremor and convulsion; and 5: death. Scoring of symptoms was performed in a blinded manner by an independent observer.
The jejunum was processed and stained with periodic acid-Schiff (PAS) and chloroacetate esterase for detection of mucosal mucus-containing cells and mast cells respectively, as previously described (Wang, M., et al. J. Allergy Clin. Immunol. 126, 306-316 (2010); Tomkinson, A., et al. Am. J. Respir. Crit. Care Med. 163, 721-730 (2001)). Numbers of mucosal cells expressing Cyp11a1 were identified by immunohistochemical (IHC) staining using anti-human Cyp11a1 antibody (Abcam, Cambridge, Mass.).
Serum peanut-specific IgE, IgG1, and IgG2a levels were measured by ELISA, as described previously (Payne, A. H. Biol. Reprod. 42, 399-404 (1990)).
Levels of histamine in plasma were measured using an enzyme immunoassay histamine kit (Beckman Coulter, Fullerton, Calif.), as described by the manufacturer. The concentration of histamine was calculated from a standard curve provided by the manufacturer.
RNA was extracted from jejunal tissue homogenates or from CD4 T cells cultured in vitro using Trizol (Invitrogen). cDNA was generated using the iScript cDNA synthesis kit (Bio-Rad Laboratories, Hercules, Calif.). Quantitative real-time PCR was performed on the ABI Prism 7300 sequence detection system (Applied Biosystems, Foster City, Calif.). All primers and probes used were purchased as Tagman Gene Expression Assays from Applied Biosystems. Fold change was calculated using the Delta Delta cycle threshold (ΔΔCT) method.

Cyp11a1 [1] = experiment: Immunoblot analysis of Cyp11a1 protein in CD8+ T cells; format: cell-based, mouse; details: IL-2+IL-4, 500 μM AMG, with or without SIINFEKL re-stimulation
Protocol: In brief, mononuclear cells (MNCs) were processed from the spleens of OT-1 mice followed by stimulation of 1 μg/ml [sequence] peptide (SEQ ID NO:1) was used to stimulate cells for 1.5 hours. Two days after culture, living cells were re-isolated using histopaque and cultured in complete RPMI 1640 medium that contained recombinant mouse IL-2 (20 ng/ml) (R&D, Minneapolis, Minn.) or IL-2+IL-4 (20 ng/ml) (Peprotech, Rocky Hill, N.J.). For some experiments, AMG was added into the medium together with IL-2 or IL-2+IL-4. Medium with cytokines was changed every day for a further 4 days. The cells were then re-stimulated with 1 μg/ml [sequence] (SEQ ID NO:1) in medium containing 2 μM monensin (Calbiochem, La Jolla, Calif.) for 4 hours.
CD8^+ T cells (5×10^6) were lysed with RIPA buffer containing Hale™ protease and phosphatase inhibitor cocktail (Thermo Scientific, Rockford, Ill.) on ice for 30 minutes. Samples were run by sodium dodecyl sulfate polyacrylamide gel electrophoresis (SDS-PAGE) and transferred to nitrocellulose membranes. […] Immunoreactive bands of Western blottings were quantified by densitometric quantification of autoradiographs using Image J (NIMH, Bethesda, Md.), and expressed as relative Cyp11a1 normalized by β-actin.

Cyp11a1 [2] = target: T1, Cyp11a1 (Mus musculus, UniProt Q9QZ82); experiment: Pregnenolone ELISA in supernatants of differentiated CD8+ T cells (Cyp11a1 enzymatic activity); format: cell-based; details: CD8+ T cells differentiated in IL-2+IL-4, AMG 500 μM; without AMG 424.8±35.5 pg/ml
T1 construct: mononuclear cells (MNCs) were processed from the spleens of OT-1 mice; endogenous in cells
T1 sequence (Q9QZ82 37-526): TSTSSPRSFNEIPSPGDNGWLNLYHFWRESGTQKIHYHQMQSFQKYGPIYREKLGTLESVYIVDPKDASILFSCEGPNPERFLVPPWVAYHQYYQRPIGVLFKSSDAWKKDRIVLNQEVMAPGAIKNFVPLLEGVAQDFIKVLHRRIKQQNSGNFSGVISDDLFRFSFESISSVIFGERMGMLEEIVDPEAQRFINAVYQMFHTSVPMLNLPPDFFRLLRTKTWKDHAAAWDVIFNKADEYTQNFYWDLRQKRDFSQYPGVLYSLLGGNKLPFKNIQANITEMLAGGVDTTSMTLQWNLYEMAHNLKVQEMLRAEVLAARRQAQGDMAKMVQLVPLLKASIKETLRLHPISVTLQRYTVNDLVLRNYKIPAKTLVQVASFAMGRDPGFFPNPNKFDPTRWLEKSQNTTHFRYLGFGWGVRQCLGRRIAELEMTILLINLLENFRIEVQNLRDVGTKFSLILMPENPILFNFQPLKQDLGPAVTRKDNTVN
Protocol: CD8^+ effector memory T cells were generated in vitro as previously described (Miyahara, N. et al. J. Immunol. 172, 2549-2558 (2004); Miyahara, N. et al. J. Immunol. 174, 4979-4984 (2005)). In brief, mononuclear cells (MNCs) were processed from the spleens of OT-1 mice followed by stimulation of 1 μg/ml [sequence] peptide (SEQ ID NO:1) was used to stimulate cells for 1.5 hours. Two days after culture, living cells were re-isolated using histopaque and cultured in complete RPMI 1640 medium that contained recombinant mouse IL-2 (20 ng/ml) (R&D, Minneapolis, Minn.) or IL-2+IL-4 (20 ng/ml) (Peprotech, Rocky Hill, N.J.). For some experiments, AMG was added into the medium together with IL-2 or IL-2+IL-4. Medium with cytokines was changed every day for a further 4 days. The cells were then re-stimulated with 1 μg/ml [sequence] (SEQ ID NO:1) in medium containing 2 μM monensin (Calbiochem, La Jolla, Calif.) for 4 hours.
CD8^+ T cells generated in the presence of IL-2, IL-2+IL-4, IL-2+AMG, or IL-2+IL-4+AMG were cultured in 6-well plates at 5×10^6/ml for 24 hours. Supernatants were collected. Pregnenolone levels were measured using the Pregnenolone ELISA kit (ALPCO Diagnostics, Salem, N.H.).
The enzymatic activity of Cyp11a1 was assessed using an ELISA assay for detection of pregnenolone levels in cell culture supernatants (Kim, C. J. et al. J. Clin. Endocrinol. Metab. 93, 696-702 (2008)).

[3] = system: T-bet and GATA3 expression; experiment: Quantitative RT-PCR of T-bet and GATA3 in CD8+ T cells; format: cell-based, mouse; details: CD8+ T cells in IL-2 or IL-2+IL-4, untreated vs 500 μM AMG
Protocol: CD8^+ effector memory T cells were generated in vitro as previously described (Miyahara, N. et al. J. Immunol. 172, 2549-2558 (2004); Miyahara, N. et al. J. Immunol. 174, 4979-4984 (2005)). In brief, mononuclear cells (MNCs) were processed from the spleens of OT-1 mice followed by stimulation of 1 μg/ml SIINFEKL peptide (SEQ ID NO:1) was used to stimulate cells for 1.5 hours. Two days after culture, living cells were re-isolated using histopaque and cultured in complete RPMI 1640 medium that contained recombinant mouse IL-2 (20 ng/ml) (R&D, Minneapolis, Minn.) or IL-2+IL-4 (20 ng/ml) (Peprotech, Rocky Hill, N.J.). For some experiments, AMG was added into the medium together with IL-2 or IL-2+IL-4. Medium with cytokines was changed every day for a further 4 days. The cells were then re-stimulated with 1 μg/ml SIINFEKL (SEQ ID NO:1) in medium containing 2 μM monensin (Calbiochem, La Jolla, Calif.) for 4 hours. Total RNA was extracted from 5×10^6 differentiated CD8^+ T cells using the RNeasy Mini kit (Qiagen, Valencia, Calif.). 1 μg of total RNA was converted into cDNA using iScript cDNA Synthesis kit (Bio-Rad, Hercules, Calif.). […] Fold-changes were determined using the 2^−ΔΔCt method, with normalization to expression of mouse GAPDH.

For `CCC1(c2ccc(N)cc2)CCC(=O)NC1=O` (stereo not drawn) [AMG, aminoglutethimide], the Clinical symptoms (Balb/c mice; 5 mg/kg) was “no observed inhibitory effects”, the Diarrhea occurrence (Balb/c mice; 5 mg/kg) was “no observed inhibitory effects” and the Diarrhea (Balb/c mice; 10 mg/kg) was “partially inhibited”. The Symptom scores (Balb/c mice; 10 mg/kg) was “partially inhibited”, the “Numbers of mast cells in the mucosa of the small intestine” value (Balb/c mice; 20 mg/kg) was “markedly reduced” and the “Numbers of mucus-producing goblet cells in the mucosa of the small intestine” value (Balb/c mice; 20 mg/kg) was “markedly reduced”. For the same molecule, the Clinical symptom scores (Balb/c mice; 20 mg/kg, 30 minutes after oral challenge) was “significantly diminished”, the Development of diarrhea (Balb/c mice; 20 mg/kg, gavage twice a day during challenge phase) was “fully prevented” and the “Cyp11a1 mRNA in the small intestine” value (Balb/c mice; AMG 20 mg/kg) was “did not affect”. The “GATA3 mRNA expression in the small intestine” value (Balb/c mice; AMG 20 mg/kg) was “not affected”, the “IL4 mRNA expression in the small intestine” value (Balb/c mice; AMG 20 mg/kg) was “reduced to baseline levels” and the “IL13 mRNA expression in the small intestine” value (Balb/c mice; AMG 20 mg/kg) was “reduced to baseline levels”. The “IL17A mRNA expression in the small intestine” value (Balb/c mice; AMG 20 mg/kg) was “reduced to baseline levels”, the “Numbers of Cyp11a1-positive cells in the small intestine” value (Balb/c mice; AMG 20 mg/kg) was “did not affect” and the “RORγt mRNA expression in the small intestine” value (Balb/c mice; AMG 20 mg/kg) was “not affected”. The “T-bet mRNA expression in the small intestine” value (Balb/c mice; AMG 20 mg/kg) was “not affected”, the Plasma histamine levels (Balb/c mice; AMG 20 mg/kg, within 30 minutes of the last challenge) was “significantly lower” and the “Serum peanut-specific IgE” value (Balb/c mice; AMG given after sensitization) was “unaffected”. The “Serum peanut-specific IgG1” value (Balb/c mice; AMG given after sensitization) was “unaffected”, the “Serum peanut-specific IgG2a” value (Balb/c mice; AMG given after sensitization) was “unaffected” and the “Cyp11a1 protein levels (immunoblot)” value (Cyp11a1 [1]) was “did not prevent IL-4-induced increases in Cyp11a1 protein levels”. For the same molecule, the “Pregnenolone levels in cell supernatants” value (Cyp11a1 [2]) was 96.4 ± 35 pg/mL, the GATA3 expression [3] was “no significant differences” and the T-bet expression [3] was “no significant differences”.
